# Patent publication US20110166112A1, “METHOD FOR STIMULATING PLATELET PRODUCTION” (Eisai, Inc., priority 2009, published 2011)
# System: subjects with chronic ITP who completed 28 days of study treatment
# Test: Phase 2 6-month rollover study of E5501: effectiveness (durable, transient, overall platelet response, maintenance, steroid use, upward dose titration)
# Format: in vivo, human
# Conditions: for Decreased use of concomitant steroid medication by ≧50%, No / Decreased use of concomitant steroid medication by ≧50%, Yes / Permanently discontinued steroid use, No / Permanently discontinued steroid use, Yes: 6-month rollover, FAS subjects taking steroids at baseline; for subjects who required upward dose titration / durable response rate: 6-month treatment period; for Transient Platelet Response No, %: 'no' includes durable responders
# Protocol: This study was a multicenter, parallel-group, rollover study of E5501 in subjects with chronic ITP who were enrolled in and completed 28 days' of study treatment. All subjects who completed the previous study and otherwise met the eligibility criteria for this rollover protocol were enrolled.
# Subjects who rolled over from the previous study were treated for an additional 6 months after completing previous study.
# Initial dose: Subjects who met the efficacy response in the previous study continued to receive their previous blinded dose at entry into this study.
# Dose titration was performed in an open label fashion in 10 mg increments as follows: • Nonresponders, who received initial doses of open-label E5501 10 mg in the previous study, could have their dose increased in 10 mg increments every 14 days to a maximum of 40 mg/day in the absence of platelet response.
# Subjects were also permitted to reduce their dose of ITP-directed concomitant therapy (e.g., steroids). The overall goal of any dose modification was to maintain the subject's peripheral platelet count above 50,000/mm^3 and to decrease the need for ITP-directed concomitant medications (if applicable). During any dose modification of study drug or ITP-directed concomitant medications, platelet counts were collected every week. After platelet counts stabilized, platelet count collection reverted to a biweekly schedule.
# Assessments: Study subjects were evaluated for safety and efficacy (including platelet count) on day 1 and then biweekly while receiving treatment.
# Two primary analysis populations were used to summarize safety and effectiveness: • Safety population: all subjects who received at least 1 dose of study drug and had at least 1 post-treatment safety assessment in either the previous or this study. All safety analyses were performed using this population. • Full Analysis Set (FAS): all subjects who participated in both studies and who had at least one post-treatment effectiveness assessment in this study. All efficacy analyses were performed using this population.
# Secondary Endpoints: The secondary endpoints were markers of effectiveness, including: • 1. Changes in platelet count from baselines of the previous study and of this study by study visit; and • 2. Durable platelet response, defined as subjects who had at least 3 platelet count assessments in the last 14 weeks of the 24-week treatment period, and whose platelet count was at a response level for at least 75% of the time in the last 14 weeks during the 24-week treatment period, with no rescue medication used during the 24-week treatment period. Platelet response level was defined as ≧50,000/mm^3 for subjects whose baseline platelet count was <30,000/mm^3 in the previous study or an increase in baseline platelet count of ≧20,000/mm^3 for subjects receiving steroids whose baseline platelet count in the previous study was ≧30,000/mm^3 but <50,000/mm^3; • 3. Transient platelet response, defined as achievement of a response level for any 4 consecutive weeks during the 24-week treatment period without durable platelet response in the absence of any rescue medication; • 4. Overall platelet response (durable platelet response plus transient platelet response); • 5. Maintenance of platelet response, defined as subjects who were responders in the previous study (e.g., responders on day 28 of the previous study) who achieved a durable response in this study and had no upward dose titration of E5501 during this study; • 6. Permanent discontinuation of steroid use, defined as subjects who used steroid medication within the 2-week period before their first dose of study drug in this study, and for whom concomitant steroid medication was discontinued at least 8 weeks before the end of the treatment period; • 7. Reduction of steroid use by at least 50%. […]
# [1] = FAS, 501-CL-003 Nonresponders (N = 28)
# [2] = FAS, 501-CL-003 Responders (N = 25)
# [3] = FAS, <3 Lines of Prior Therapy, E5501 Total, N assessed 18
# [4] = FAS, <3 Lines of Prior Therapy, Non-Responders, N assessed 6
# [5] = FAS, <3 Lines of Prior Therapy, Responders, N assessed 12
# [6] = FAS, Baseline PC >15K/mm^3, E5501 Total, N assessed 38
# [7] = FAS, Baseline PC >15K/mm^3, Non-Responders, N assessed 19
compound,measurement,setting,value
"O=C(Nc1nc(-c2cc(Cl)cs2)c(N2CCN(C3CCCCC3)CC2)s1)c1cnc(N2CCC(C(=O)O)CC2)c(Cl)c1 [E5501, 1-(3-chloro-5-{[4-(4-chlorothiophen-2-yl)-5-(4-cyclohexylpiperazin-1-yl)thiazol-2-yl]carbamoyl}pyridine-2-yl)piperidine-4-carboxylic acid]","Decreased use of concomitant steroid medication by ≧50%, No",E5501 Total,11 (45.8) n (%)
same,"Decreased use of concomitant steroid medication by ≧50%, Yes",E5501 Total,13 (54.2) n (%)
same,"Permanently discontinued steroid use, No",E5501 Total,16 (66.7) n (%)
same,"Permanently discontinued steroid use, Yes",E5501 Total,8 (33.3) n (%)
same,"Decreased use of concomitant steroid medication by ≧50%, No",Nonresponders,6 (50.0) n (%)
same,"Decreased use of concomitant steroid medication by ≧50%, Yes",Nonresponders,6 (50.0) n (%)
same,"Permanently discontinued steroid use, No",Nonresponders,8 (66.7) n (%)
same,"Permanently discontinued steroid use, Yes",Nonresponders,4 (33.3) n (%)
same,"Decreased use of concomitant steroid medication by ≧50%, No",Responders,5 (41.7) n (%)
same,"Decreased use of concomitant steroid medication by ≧50%, Yes",Responders,7 (58.3) n (%)
same,"Permanently discontinued steroid use, No",Responders,8 (66.7) n (%)
same,"Permanently discontinued steroid use, Yes",Responders,4 (33.3) n (%)
same,subjects who required upward dose titration,25 responders,20%
same,subjects who required upward dose titration,28 non-responders,75%
same,durable response rate,"FAS, all subjects",52.8%
same,durable response rate,"FAS, non-responders in previous study",35.7%
same,durable response rate,"FAS, responders in previous study",72.0%
same,subjects who achieved an overall platelet response after the titration,13 subjects who required and did receive a dose titration,76.9%
same,median platelet counts maintained throughout the study,FAS,"above 50,000 /mm^3"
same,"Upward titration required and implemented, % of subjects","FAS, 501-CL-003 Nonresponders",(47.6) %
same,"Upward titration required and implemented, n of subjects","FAS, 501-CL-003 Nonresponders",10/21
same,"Upward titration required and implemented; subject achieved overall response, % of subjects","FAS, 501-CL-003 Nonresponders",(70.0) %
same,"Upward titration required and implemented; subject achieved overall response, n of subjects","FAS, 501-CL-003 Nonresponders",7/10
same,"Upward titration required, % of subjects",[1],(75.0) %
same,"Upward titration required, n of subjects",[1],21
same,"Upward titration required and implemented, % of subjects","FAS, 501-CL-003 Responders",(60.0) %
same,"Upward titration required and implemented, n of subjects","FAS, 501-CL-003 Responders",3/5
same,"Upward titration required and implemented; subject achieved overall response, % of subjects","FAS, 501-CL-003 Responders",(100.0) %
same,"Upward titration required and implemented; subject achieved overall response, n of subjects","FAS, 501-CL-003 Responders",3/3
same,"Upward titration required, % of subjects",[2],(20.0) %
same,"Upward titration required, n of subjects",[2],5
same,"Durable Platelet Response No, %","FAS, E5501 Total (N=53)",(47.2) %
same,"Durable Platelet Response Yes, %","FAS, E5501 Total (N=53)",(52.8) %
same,"Transient Platelet Response Yes, %","FAS, E5501 Total (N=53)",(22.6) %
same,"With Overall Response No, %","FAS, E5501 Total (N=53)",(24.5) %
same,"With Overall Response Yes, %","FAS, E5501 Total (N=53)",(75.5) %
same,"Transient Platelet Response No, %","FAS, E5501 Total (N=53)",(77.4) %
same,"Durable Platelet Response No, %","FAS, Non-Responders (N=28)",(64.3) %
same,"Durable Platelet Response Yes, %","FAS, Non-Responders (N=28)",(35.7) %
same,"Transient Platelet Response Yes, %","FAS, Non-Responders (N=28)",(28.6) %
same,"With Overall Response No, %","FAS, Non-Responders (N=28)",(35.7) %
same,"With Overall Response Yes, %","FAS, Non-Responders (N=28)",(64.3) %
same,"Transient Platelet Response No, %","FAS, Non-Responders (N=28)",(71.4) %
same,"Durable Platelet Response No, %","FAS, Responders (N=25)",(28.0) %
same,"Durable Platelet Response Yes, %","FAS, Responders (N=25)",(72.0) %
same,"Transient Platelet Response Yes, %","FAS, Responders (N=25)",(16.0) %
same,"With Overall Response No, %","FAS, Responders (N=25)",(12.0) %
same,"With Overall Response Yes, %","FAS, Responders (N=25)",(88.0) %
same,"Transient Platelet Response No, %","FAS, Responders (N=25)",(84.0) %
same,"Upward titration required and implemented, % of subjects","FAS, Total",(50.0) %
same,"Upward titration required and implemented, n of subjects","FAS, Total",13/26
same,"Upward titration required and implemented; subject achieved overall response, % of subjects","FAS, Total",(76.9) %
same,"Upward titration required and implemented; subject achieved overall response, n of subjects","FAS, Total",10/13
same,"Upward titration required, % of subjects","FAS, Total (N = 53)",(49.0) %
same,"Upward titration required, n of subjects","FAS, Total (N = 53)",26
same,"Durable Platelet Response, n (%) with response",[3],12 (66.7) n (%)
same,"Overall Platelet Response, n (%) with response",[3],15 (83.3) n (%)
same,"Durable Platelet Response, n (%) with response",[4],3 (50.0) n (%)
same,"Overall Platelet Response, n (%) with response",[4],4 (66.7) n (%)
same,"Durable Platelet Response, n (%) with response",[5],9 (75.0) n (%)
same,"Overall Platelet Response, n (%) with response",[5],11 (91.7) n (%)
same,"Durable Platelet Response, n (%) with response",[6],24 (63.2) n (%)
same,"Overall Platelet Response, n (%) with response",[6],33 (86.8) n (%)
same,"Durable Platelet Response, n (%) with response",[7],9 (47.4) n (%)
same,"Overall Platelet Response, n (%) with response",[7],15 (78.9) n (%)
